Values quoted from earlier work in patent US20090093547A1, “Compositions and Methods for Treating Premature Ejaculation” (Sciele Pharma, Inc., priority 2007, published 2009).
Where a name gives a salt, the structure may show the parent alone.

Settings: hydrochloride salt crystallized from ethanol and isopropyl ether

SMILES: CCCNC(C)C(=O)Nc1ccccc1C (stereo not shown) [Prilocalne hydrochloride salt, Prilocalne]
- solubility in water: readily soluble
